Results taken from ChEMBL document CHEMBL5352423, “Discovery of potent human dihydroorotate dehydrogenase inhibitors based on a benzophenone scaffold” (Eur J Med Chem, 2022).
Converted amounts (≈) assume the structure as drawn. Blank lines part the entries; values can stand above or below the compound they belong to.

Assays:
[1] = target: T1, Dihydroorotate dehydrogenase (quinone), mitochondrial (Homo sapiens, UniProt Q02127); test: Inhibition of human DHODH at 1 uM for 30 mins relative to control
[2] = target: T1, Dihydroorotate dehydrogenase (quinone), mitochondrial; test: Inhibition of human DHODH at 100 nM for 30 mins relative to control
[3] = target: T1, Dihydroorotate dehydrogenase (quinone), mitochondrial; test: Inhibition of human DHODH incubated for 30 mins
[4] = target: T1, Dihydroorotate dehydrogenase (quinone), mitochondrial; test: Potency index, ratio of teriflunomide IC50 to test compound IC50 for human DHODH
[5] = Toxicity in BALB/c mouse assessed as change in blood RBC administered at 300 mg/kg, po for 14 days; format: organism-based; conditions: in vivo, 336 h, time 14 day
[6] = Selectivity index ratio of IC50 for human HL7702 cells to IC50 for human Raji cells; format: toxicity; conditions: HL7702 cells and Raji cells, read-out: Ratio IC50
[7] = Toxicity in BALB/c mouse assessed as change in blood WBC administered at 300 mg/kg, po for 14 days; format: organism-based; conditions: in vivo, 336 h, time 14 day
[8] = Toxicity in BALB/c mouse assessed as increase in albumin to globulin ratio administered at 300 mg/kg, po for 14 days; format: organism-based; conditions: in vivo, 336 h, time 14 day
Kasumi 1 = test: Antiproliferative activity against human Kasumi 1 cells incubated for 96 hrs by MTT assay; format: functional, cell-based; conditions: Kasumi 1, 96 h
[9] = Toxicity in BALB/c mouse assessed as histopathological changes in lung administered at 300 mg/kg, po for 14 days; format: organism-based; conditions: in vivo, 336 h, time 14 day
[10] = Cytotoxicity against human NCM460 cells incubated for 96 hrs by MTT assay; format: toxicity, cell-based
A-375 = test: Antiproliferative activity against human A-375 cells incubated for 96 hrs by MTT assay; format: functional, cell-based; conditions: A-375, 96 h
[11] = Toxicity in BALB/c mouse assessed as change in blood MCH administered at 300 mg/kg, po for 14 days; format: organism-based; conditions: in vivo, 336 h, time 14 day
[12] = Toxicity in BALB/c mouse assessed as change in blood MCHC administered at 300 mg/kg, po for 14 days; format: organism-based; conditions: in vivo, 336 h, time 14 day
[13] = Toxicity in BALB/c mouse assessed as change in blood lymphocytes administered at 300 mg/kg, po for 14 days; format: organism-based, Lymphocyte; conditions: in vivo, 336 h, time 14 day
[14] = target: Voltage-gated inwardly rectifying potassium channel KCNH2 (Homo sapiens, UniProt Q12809); test: Inhibition of human ERG; format: toxicity
[15] = Aqueous solubility of compound; format: physicochemical; conditions: buffer
KG-1 = test: Antiproliferative activity against human KG-1 cells incubated for 96 hrs by MTT assay; format: functional, cell-based; conditions: KG-1, 96 h
[16] = Toxicity in BALB/c mouse assessed as change in blood MCV administered at 300 mg/kg, po for 14 days; format: organism-based; conditions: in vivo, 336 h, time 14 day
HCT-116 = test: Antiproliferative activity against human HCT-116 cells incubated for 96 hrs by MTT assay; format: functional, cell-based; conditions: HCT-116, 96 h
SUD4 = test: Antiproliferative activity against human SU-DHL-4 cells incubated for 96 hrs by MTT assay; format: functional, cell-based; conditions: SU-DHL-4, 96 h
[17] = Cytotoxicity against human HCoEpiC cells incubated for 96 hrs by MTT assay; format: toxicity, cell-based
[18] = Toxicity in BALB/c mouse assessed as induction of liver inflammation administered at 300 mg/kg, po for 14 days; format: organism-based; conditions: in vivo, 336 h, time 14 day
[19] = Toxicity in BALB/c mouse assessed as change in blood PLT administered at 300 mg/kg, po for 14 days; format: organism-based; conditions: in vivo, 336 h, time 14 day
[20] = Toxicity in BALB/c mouse assessed as histopathological changes in kidney administered at 300 mg/kg, po for 14 days; format: organism-based; conditions: in vivo, 336 h, time 14 day
[21] = Toxicity in BALB/c mouse assessed as change in blood neutrophil administered at 300 mg/kg, po for 14 days; format: organism-based; conditions: in vivo, 336 h, time 14 day
[22] = Toxicity in BALB/c mouse assessed as histopathological changes in spleen administered at 300 mg/kg, po for 14 days; format: organism-based; conditions: in vivo, 336 h, time 14 day
[23] = Toxicity in BALB/c mouse assessed as histopathological changes in liver administered at 300 mg/kg, po for 14 days; format: organism-based; conditions: in vivo, 336 h, time 14 day
U-937 = test: Antiproliferative activity against human U-937 cells incubated for 96 hrs by MTT assay; format: functional, cell-based; conditions: U-937, 96 h
[24] = Toxicity in BALB/c mouse assessed as change in blood HCT administered at 300 mg/kg, po for 14 days; format: organism-based; conditions: in vivo, 336 h, time 14 day
[25] = Lipophilicity, logP of compound; format: physicochemical; conditions: octanol/water
[26] = Toxicity in BALB/c mouse assessed as change in blood RDW administered at 300 mg/kg, po for 14 days; format: organism-based; conditions: in vivo, 336 h, time 14 day
Raji = test: Antiproliferative activity against human Raji cells incubated for 96 hrs by MTT assay; format: functional, cell-based
[27] = Toxicity in BALB/c mouse assessed as change in blood HGB administered at 300 mg/kg, po for 14 days; format: organism-based; conditions: in vivo, 336 h, time 14 day
[28] = Cytotoxicity against human HL7702 cells incubated for 96 hrs by MTT assay; format: toxicity, cell-based, L02
[29] = Toxicity in BALB/c mouse assessed as change in blood MPV administered at 300 mg/kg, po for 14 days; format: organism-based; conditions: in vivo, 336 h, time 14 day

T1 sequence (Q02127 whole entry): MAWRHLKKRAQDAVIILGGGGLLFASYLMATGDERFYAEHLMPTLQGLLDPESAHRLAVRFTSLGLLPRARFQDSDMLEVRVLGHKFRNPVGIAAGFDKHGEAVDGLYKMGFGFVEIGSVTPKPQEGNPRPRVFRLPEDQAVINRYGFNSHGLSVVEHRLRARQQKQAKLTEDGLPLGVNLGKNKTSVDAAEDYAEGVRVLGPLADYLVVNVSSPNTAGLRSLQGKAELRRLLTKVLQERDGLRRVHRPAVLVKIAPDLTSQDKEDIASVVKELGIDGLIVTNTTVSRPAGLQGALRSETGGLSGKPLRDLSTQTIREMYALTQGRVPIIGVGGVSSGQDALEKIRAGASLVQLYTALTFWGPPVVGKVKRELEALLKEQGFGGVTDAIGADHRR
Chain of Voltage-gated inwardly rectifying potassium channel KCNH2 (Q12809 whole entry): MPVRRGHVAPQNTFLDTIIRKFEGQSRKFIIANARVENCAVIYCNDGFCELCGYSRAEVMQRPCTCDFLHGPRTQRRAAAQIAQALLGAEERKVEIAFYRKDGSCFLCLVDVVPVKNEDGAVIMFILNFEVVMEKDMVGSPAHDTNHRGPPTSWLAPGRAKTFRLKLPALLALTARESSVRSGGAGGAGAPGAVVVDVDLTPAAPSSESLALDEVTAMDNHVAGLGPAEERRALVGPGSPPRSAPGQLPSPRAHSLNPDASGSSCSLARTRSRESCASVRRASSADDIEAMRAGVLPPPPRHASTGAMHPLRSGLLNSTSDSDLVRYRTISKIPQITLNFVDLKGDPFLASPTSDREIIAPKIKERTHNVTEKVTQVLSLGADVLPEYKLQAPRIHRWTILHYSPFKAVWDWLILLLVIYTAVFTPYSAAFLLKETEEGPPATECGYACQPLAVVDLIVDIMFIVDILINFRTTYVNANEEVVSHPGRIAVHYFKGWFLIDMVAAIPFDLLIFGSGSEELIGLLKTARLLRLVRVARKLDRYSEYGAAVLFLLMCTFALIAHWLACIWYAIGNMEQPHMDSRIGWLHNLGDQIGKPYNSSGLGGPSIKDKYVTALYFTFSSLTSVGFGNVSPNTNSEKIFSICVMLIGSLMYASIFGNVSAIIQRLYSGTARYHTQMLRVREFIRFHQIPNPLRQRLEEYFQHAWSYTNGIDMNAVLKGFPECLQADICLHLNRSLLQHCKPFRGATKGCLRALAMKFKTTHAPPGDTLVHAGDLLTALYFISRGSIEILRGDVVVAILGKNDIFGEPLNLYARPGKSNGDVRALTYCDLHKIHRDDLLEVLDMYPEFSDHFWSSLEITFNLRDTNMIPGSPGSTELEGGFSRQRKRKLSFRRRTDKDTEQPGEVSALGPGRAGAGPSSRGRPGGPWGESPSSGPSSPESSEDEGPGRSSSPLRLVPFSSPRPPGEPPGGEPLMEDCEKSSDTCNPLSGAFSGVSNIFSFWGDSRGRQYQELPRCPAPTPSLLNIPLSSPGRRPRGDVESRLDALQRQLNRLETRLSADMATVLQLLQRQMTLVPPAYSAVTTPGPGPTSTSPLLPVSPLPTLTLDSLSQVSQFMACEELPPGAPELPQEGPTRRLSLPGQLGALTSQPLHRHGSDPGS

inhibition [1]: 86.3%
inhibition [2]: 57.7%
IC50 [3]: 66.1 nM
Structure (SMILES): O=C(c1ccccc1)c1ccc(Nc2ncccc2C(=O)O)c(F)c1

inhibition [1]: 90.4%
inhibition [2]: 67.2%
IC50 [3]: 35.1 nM
Structure (SMILES): O=C(c1ccccc1)c1cc(F)c(Nc2ncccc2C(=O)O)c(F)c1

inhibition [1]: 95.3%
inhibition [2]: 71.5%
Ratio IC50 [4]: 14
IC50 [3]: 29 nM
Structure (SMILES): C/C(O)=C(\C#N)C(=O)Nc1cc(O[C@@H](C)C(F)(F)F)c(C(=O)c2ccccc2)cc1F

IC50 (A-375): 950 nM
solubility [15]: 109 µg/mL (≈ 241 µM)
inhibition [1]: 96.9%
inhibition [2]: 79.1%
IC50 (HCT-116): 640 nM
IC50 (U-937): 520 nM
logP [25]: 2.16
IC50 [3]: 23.9 nM
IC50 (Raji): 100 nM
Structure (SMILES): C/C(O)=C(\C#N)C(=O)Nc1cc(O[C@@H](C)C(F)(F)F)c(C(=O)c2ccccc2F)cc1F
Activity [5]: Non-Toxic
selectivity ratio [6]: 21
Activity [7]: Non-Toxic
Activity [8]: Toxic
IC50 (Kasumi 1): 410 nM
Activity [9]: Non-Toxic
IC50 at 96 h [10]: > 10000 nM
Activity [11]: Non-Toxic
Activity [12]: Non-Toxic
Activity [13]: Non-Toxic
IC50 [14]: > 100000 nM
IC50 (KG-1): 530 nM
Activity [16]: Non-Toxic
IC50 (SUD4): 1650 nM
IC50 at 96 h [17]: 60500 nM
Activity [18]: Toxic
Activity [19]: Non-Toxic
Activity [20]: Non-Toxic
Activity [21]: Non-Toxic
Activity [22]: Non-Toxic
Activity [23]: Toxic
Activity [24]: Non-Toxic
Activity [26]: Non-Toxic
Activity [27]: Non-Toxic
IC50 at 96 h [28]: 2100 nM
Activity [29]: Non-Toxic

inhibition [1]: 90.2%
inhibition [2]: 53.4%
Structure (SMILES): C/C(O)=C(\C#N)C(=O)Nc1cc(O[C@@H](C)C(F)(F)F)c(C(=O)c2ccc3ccccc3c2)cc1F

inhibition [1]: 91.3%
inhibition [2]: 56.8%
IC50 [3]: 70.5 nM
Structure (SMILES): C/C(O)=C(\C#N)C(=O)Nc1cc(O[C@@H](C)C(F)(F)F)c(C(=O)c2ccc(Cl)cc2)cc1F

inhibition [1]: 80.4%
inhibition [2]: 38.3%
IC50 [3]: 178 nM
Structure (SMILES): O=C(c1ccccc1)c1ccc(Nc2ncccc2C(=O)O)cc1

inhibition [1]: 74.1%
inhibition [2]: 31.7%
Structure (SMILES): C/C(O)=C(\C#N)C(=O)Nc1ccc(C(=O)c2ccccc2)c(F)c1

inhibition [1]: 89.9%
inhibition [2]: 66.1%
IC50 [3]: 37.1 nM
Structure (SMILES): C/C(O)=C(\C#N)C(=O)Nc1cc(OC(C)C)c(C(=O)c2ccccc2)cc1F

inhibition [1]: 76.3%
inhibition [2]: 43.8%
Structure (SMILES): C/C(O)=C(\C#N)C(=O)Nc1cc(F)c(C(=O)c2ccccc2)cc1F

inhibition [1]: 90%
inhibition [2]: 52.1%
Structure (SMILES): COc1ccc(C(=O)c2cc(F)c(NC(=O)/C(C#N)=C(/C)O)cc2O[C@@H](C)C(F)(F)F)cc1

inhibition [1]: 92.1%
inhibition [2]: 59.3%
IC50 [3]: 63.5 nM
Structure (SMILES): C/C(O)=C(\C#N)C(=O)Nc1cc(O[C@@H](C)C(F)(F)F)c(C(=O)c2cccc(F)c2)cc1F

inhibition [1]: 91.6%
inhibition [2]: 56.4%
IC50 [3]: 71.8 nM
Structure (SMILES): C/C(O)=C(\C#N)C(=O)Nc1cc(O[C@@H](C)C(F)(F)F)c(C(=O)c2ccc(F)cc2)cc1F

inhibition [1]: 83.1%
inhibition [2]: 49.8%
Structure (SMILES): CCOc1cc(NC(=O)/C(C#N)=C(/C)O)c(F)cc1C(=O)c1ccccc1

inhibition [1]: 70.7%
inhibition [2]: 32.1%
Structure (SMILES): C/C(O)=C(\C#N)C(=O)Nc1ccc(C(=O)c2ccccc2)cc1F

inhibition [1]: 88.1%
inhibition [2]: 62.4%
IC50 [3]: 63.5 nM
Structure (SMILES): O=C(c1ccccc1)c1ccc(Nc2ncccc2C(=O)O)c(Cl)c1

inhibition [1]: 82.4%
inhibition [2]: 48.5%
Structure (SMILES): COc1cc(NC(=O)/C(C#N)=C(/C)O)c(F)cc1C(=O)c1ccccc1

inhibition [1]: 92.2%
inhibition [2]: 57.2%
IC50 [3]: 69.1 nM
Structure (SMILES): COc1cccc(C(=O)c2cc(F)c(NC(=O)/C(C#N)=C(/C)O)cc2O[C@@H](C)C(F)(F)F)c1

inhibition [1]: 57.3%
inhibition [2]: 30.8%
Structure (SMILES): C/C(O)=C(\C#N)C(=O)Nc1ccc(C(=O)c2ccccc2)cc1

inhibition [1]: 90.1%
inhibition [2]: 65.4%
IC50 [3]: 35.6 nM
Structure (SMILES): CCC(C)Oc1cc(NC(=O)/C(C#N)=C(/C)O)c(F)cc1C(=O)c1ccccc1 (stereo unspecified)

inhibition [2]: 21.5%
Structure (SMILES): C/C(O)=C(\C#N)C(=O)Nc1ccc(C(F)(F)F)cc1

inhibition [1]: 93.7%
inhibition [2]: 61.8%
IC50 [3]: 54.8 nM
Structure (SMILES): C/C(O)=C(\C#N)C(=O)Nc1cc(O[C@@H](C)C(F)(F)F)c(C(=O)c2cccc(Cl)c2)cc1F

inhibition [1]: 76.3%
inhibition [2]: 31.8%
Structure (SMILES): C/C(O)=C(\C#N)C(=O)Nc1cc(O[C@@H](C)C(F)(F)F)c(C#N)cc1F
